Values of other authors in patent US20040260072A1, “Hydrophilic, thiol-reactive cyanine dyes and conjugates thereof with biomolecules for fluorescence diagnosis” (priority 2003, published 2004).

Conditions: in DMSO; J Chem Eng Data 1977, 22, 379

Fluorescence quantum yield Q: 0.13
Structure (SMILES): CC1(C)C(/C=C/C=C/C=C/C=C2\N(CCCCS(=O)(=O)O)c3ccc4ccccc4c3C2(C)C)=[N+](CCCCS(=O)(=O)[O-])c2ccc3ccccc3c21 [Indocyanine Green]
